# Target: G-protein coupled receptor 6 (Homo sapiens, UniProt P46095)
# Test: Modulator activity at GPR6 receptor (unknown origin) expressed in CHO-K1 cells assessed as inhibition of constitutive cAMP activity incubated for 45 mins by Eu-cAMP tracer based HTRF Ultra cAMP assay
# Format: functional, cell-based
# Sequence of G-protein coupled receptor 6 (P46095 whole entry): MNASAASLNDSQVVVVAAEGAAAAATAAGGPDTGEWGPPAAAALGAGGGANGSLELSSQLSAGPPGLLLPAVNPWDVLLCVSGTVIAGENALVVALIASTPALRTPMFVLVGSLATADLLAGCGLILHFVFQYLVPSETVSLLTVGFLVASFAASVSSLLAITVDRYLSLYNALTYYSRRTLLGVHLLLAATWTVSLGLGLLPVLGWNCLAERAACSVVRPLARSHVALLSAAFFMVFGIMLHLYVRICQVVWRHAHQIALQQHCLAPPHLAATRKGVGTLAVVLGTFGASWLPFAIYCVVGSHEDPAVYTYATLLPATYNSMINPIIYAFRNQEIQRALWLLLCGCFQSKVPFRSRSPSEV
row,EC50 [µM],Compound
1,2,Cn1cccc(C(=O)Nc2cc(C#N)ccc2N2CCC(Oc3cc(F)cc(F)c3)CC2)c1=O
2,2,Cc1nc(C(=O)Nc2cc(C#N)ccc2N2CCC(Oc3ccc(F)cc3F)CC2)no1

row,Compound,EC50 [µM]
1,N#Cc1ccc(N2CCC(Oc3ccc(F)cc3F)CC2)c(NC(=O)c2cccn(Cc3ccccc3)c2=O)c1,2
